Data taken from PubChem BioAssay (NCI).
Values joined by “and” are separate entries in the source; they are usually repeats but may differ in a detail not shown here. Equal values may be shown once.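 Interpolation was linear, between the two tested concentrations surrounding the appropriate level; five concentrations were tested over 48 hours in 96-well plates. Here, GI50 denotes the concentration required for 50% inhibition of growth. TGI is the concentration that stops growth completely.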

These compounds were tested on OVCAR-4 ovarian (assay: growth of human tumour cells (NCI), 48 h).

Structure (SMILES)	GI50 [µM]	TGI
O=C(Cc1ccc(F)c(Cl)c1)Nc1cc(C2(C(F)(F)F)CC2)nn1CC1CCCCC1	3.27	> 15 µM
N#Cc1nn(-c2cc(=O)[nH]c3ccc(Cl)cc23)c(N)c1C#N	8.63	> 100 µM
NC(N)=NCCCC(=O)O		> 100 µM
CCN1CCN(c2cc(C)c3cc(NC(=O)c4ccc(OC)c(OC)c4)ccc3n2)CC1	11	> 100 µM
COC(=O)c1c2c(c(C)[n+]([O-])c1C)C(=O)C=C(NCc1ccc(F)cc1)C2=O	0.254	1.1 µM
CCCC(=O)Nc1cn(COC)c(C(=O)N2C[C@@H]3C[C@]34C2=CC(=O)c2[nH]cc(C)c24)n1	4.66	18.2 µM and 14.3 µM
CNCCOC(=O)/C=C1\CC[C@H]2[C@@H]([C@@H](O)C(=O)[C@@H]3[C@]2(C)CC[C@H](O)[C@]3(C)C(=O)OC)[C@H]1C	0.222	0.484 µM
Cc1nnc(Nc2ccc(NC(=O)Nc3ccc(Cl)cc3)cc2)c2ccccc12	2.79	8.36 µM
CC(=O)ON1CCCC(P(=O)(OCCSC(=O)C(C)(C)C)OCCSC(=O)C(C)(C)C)C1=O (stereo not given)	1.58	26.4 µM
C=CCC1(c2ccc(OC)cc2)C=CC(=O)CC1 (stereo not given)		> 100 µM
COC(=O)[C@]12CC[C@@H](C)[C@H](C)[C@@H]1C1=CC[C@@H]3[C@@]4(C)C[C@@H](O)[C@H](O)[C@@](C)(CO)C4=CC[C@@]3(C)[C@]1(C)CC2	15.9	32.8 µM
Cc1nc(N)sc1N=Nc1ccccc1Br		> 61.9 µM
NS(=O)(=O)c1ccc(N=Nc2c(O)c(C(=O)O)cc3ccccc23)cc1		> 100 µM
Cc1c(N(C)C)ccc2c(=O)c3cccc(CC(=O)O)c3oc12		> 100 µM
CC(NCCC(c1ccccc1)c1ccccc1)c1ccccc1 (stereo not given)	2.15	6.66 µM
C/C(N=NC(=S)N1CC2CCC(CC2)C1)=C1\C=CC=CN1O		> 100 µM
O=C(Nc1ccc(Br)cc1F)c1cc(Cl)ccc1O	0.509	> 100 µM
S=c1[nH]c(=S)c2cc3ccccc3nc2[nH]1	> 100	> 100 µM
CCC[CH2][Sn]([CH2]CCC)([O]C(=O)c1ccc(OC)c(OC)c1OC)[O][Sn]([CH2]CCC)([CH2]CCC)[O]C(=O)c1ccc(OC)c(OC)c1OC	0.618	1.87 µM

These compounds were tested on SF-268 CNS (assay: growth of human tumour cells (NCI), 48 h).

Structure (SMILES)	GI50 [µM]	TGI
O=C(Cc1ccc(F)c(Cl)c1)Nc1cc(C2(C(F)(F)F)CC2)nn1CC1CCCCC1	3.95	> 15 µM
N#Cc1nn(-c2cc(=O)[nH]c3ccc(Cl)cc23)c(N)c1C#N	> 100	> 100 µM
NC(N)=NCCCC(=O)O		> 100 µM
CCN1CCN(c2cc(C)c3cc(NC(=O)c4ccc(OC)c(OC)c4)ccc3n2)CC1	9.19	> 75.1 µM
COC(=O)c1c2c(c(C)[n+]([O-])c1C)C(=O)C=C(NCc1ccc(F)cc1)C2=O	1.38	4.66 µM
CCCC(=O)Nc1cn(COC)c(C(=O)N2C[C@@H]3C[C@]34C2=CC(=O)c2[nH]cc(C)c24)n1	2.65	30.5 µM and 8.66 µM
CNCCOC(=O)/C=C1\CC[C@H]2[C@@H]([C@@H](O)C(=O)[C@@H]3[C@]2(C)CC[C@H](O)[C@]3(C)C(=O)OC)[C@H]1C	0.233	0.59 µM
Cc1nnc(Nc2ccc(NC(=O)Nc3ccc(Cl)cc3)cc2)c2ccccc12	2.57	7.17 µM
CC(=O)ON1CCCC(P(=O)(OCCSC(=O)C(C)(C)C)OCCSC(=O)C(C)(C)C)C1=O (stereo not given)	2.29	60.9 µM
C=CCC1(c2ccc(OC)cc2)C=CC(=O)CC1 (stereo not given)		> 100 µM
COC(=O)[C@]12CC[C@@H](C)[C@H](C)[C@@H]1C1=CC[C@@H]3[C@@]4(C)C[C@@H](O)[C@H](O)[C@@](C)(CO)C4=CC[C@@]3(C)[C@]1(C)CC2	17.4	34.8 µM
Cc1nc(N)sc1N=Nc1ccccc1Br		40.4 µM
NS(=O)(=O)c1ccc(N=Nc2c(O)c(C(=O)O)cc3ccccc23)cc1		> 100 µM
Cc1c(N(C)C)ccc2c(=O)c3cccc(CC(=O)O)c3oc12		> 100 µM
CC(NCCC(c1ccccc1)c1ccccc1)c1ccccc1 (stereo not given)	4.48	17.5 µM
C/C(N=NC(=S)N1CC2CCC(CC2)C1)=C1\C=CC=CN1O		> 100 µM
O=C(Nc1ccc(Br)cc1F)c1cc(Cl)ccc1O	0.676	9.96 µM
S=c1[nH]c(=S)c2cc3ccccc3nc2[nH]1	39.4	> 100 µM
CCC[CH2][Sn]([CH2]CCC)([O]C(=O)c1ccc(OC)c(OC)c1OC)[O][Sn]([CH2]CCC)([CH2]CCC)[O]C(=O)c1ccc(OC)c(OC)c1OC	0.187	0.842 µM

The compounds below were run on SF-295 CNS (assay: growth of human tumour cells (NCI), 48 h).

Structure (SMILES)	GI50 [µM]	TGI
O=C(Cc1ccc(F)c(Cl)c1)Nc1cc(C2(C(F)(F)F)CC2)nn1CC1CCCCC1	3.62	> 15 µM
N#Cc1nn(-c2cc(=O)[nH]c3ccc(Cl)cc23)c(N)c1C#N	> 100	> 100 µM
NC(N)=NCCCC(=O)O		> 100 µM
CCN1CCN(c2cc(C)c3cc(NC(=O)c4ccc(OC)c(OC)c4)ccc3n2)CC1	11.8	38.5 µM
COC(=O)c1c2c(c(C)[n+]([O-])c1C)C(=O)C=C(NCc1ccc(F)cc1)C2=O	0.592	1.94 µM
CCCC(=O)Nc1cn(COC)c(C(=O)N2C[C@@H]3C[C@]34C2=CC(=O)c2[nH]cc(C)c24)n1	3.68	50 µM and 15.8 µM
CNCCOC(=O)/C=C1\CC[C@H]2[C@@H]([C@@H](O)C(=O)[C@@H]3[C@]2(C)CC[C@H](O)[C@]3(C)C(=O)OC)[C@H]1C	0.301	0.951 µM
Cc1nnc(Nc2ccc(NC(=O)Nc3ccc(Cl)cc3)cc2)c2ccccc12	2.04	4.21 µM
CC(=O)ON1CCCC(P(=O)(OCCSC(=O)C(C)(C)C)OCCSC(=O)C(C)(C)C)C1=O (stereo not given)	12.7	> 100 µM
C=CCC1(c2ccc(OC)cc2)C=CC(=O)CC1 (stereo not given)		> 100 µM
COC(=O)[C@]12CC[C@@H](C)[C@H](C)[C@@H]1C1=CC[C@@H]3[C@@]4(C)C[C@@H](O)[C@H](O)[C@@](C)(CO)C4=CC[C@@]3(C)[C@]1(C)CC2	16.7	33.1 µM
Cc1nc(N)sc1N=Nc1ccccc1Br		97.7 µM
NS(=O)(=O)c1ccc(N=Nc2c(O)c(C(=O)O)cc3ccccc23)cc1		> 100 µM
Cc1c(N(C)C)ccc2c(=O)c3cccc(CC(=O)O)c3oc12		> 100 µM
CC(NCCC(c1ccccc1)c1ccccc1)c1ccccc1 (stereo not given)	1.73	3.86 µM
C/C(N=NC(=S)N1CC2CCC(CC2)C1)=C1\C=CC=CN1O		> 71.5 µM
O=C(Nc1ccc(Br)cc1F)c1cc(Cl)ccc1O	1.77	3.65 µM
S=c1[nH]c(=S)c2cc3ccccc3nc2[nH]1	> 100	> 100 µM
CCC[CH2][Sn]([CH2]CCC)([O]C(=O)c1ccc(OC)c(OC)c1OC)[O][Sn]([CH2]CCC)([CH2]CCC)[O]C(=O)c1ccc(OC)c(OC)c1OC	0.568	1.5 µM

What follows are compounds tested on SK-OV-3 ovarian (assay: growth of human tumour cells (NCI), 48 h).

Structure (SMILES)	GI50 [µM]	TGI
O=C(Cc1ccc(F)c(Cl)c1)Nc1cc(C2(C(F)(F)F)CC2)nn1CC1CCCCC1	3.24	11 µM
N#Cc1nn(-c2cc(=O)[nH]c3ccc(Cl)cc23)c(N)c1C#N	> 100	> 100 µM
NC(N)=NCCCC(=O)O		> 100 µM
CCN1CCN(c2cc(C)c3cc(NC(=O)c4ccc(OC)c(OC)c4)ccc3n2)CC1	> 30.1	> 73.3 µM
COC(=O)c1c2c(c(C)[n+]([O-])c1C)C(=O)C=C(NCc1ccc(F)cc1)C2=O	2.53	6.45 µM
CCCC(=O)Nc1cn(COC)c(C(=O)N2C[C@@H]3C[C@]34C2=CC(=O)c2[nH]cc(C)c24)n1	13.7	28.2 µM and 29.4 µM
CNCCOC(=O)/C=C1\CC[C@H]2[C@@H]([C@@H](O)C(=O)[C@@H]3[C@]2(C)CC[C@H](O)[C@]3(C)C(=O)OC)[C@H]1C	0.392	1.36 µM
Cc1nnc(Nc2ccc(NC(=O)Nc3ccc(Cl)cc3)cc2)c2ccccc12	2.61	6.59 µM
CC(=O)ON1CCCC(P(=O)(OCCSC(=O)C(C)(C)C)OCCSC(=O)C(C)(C)C)C1=O (stereo not given)	2.86	88 µM
C=CCC1(c2ccc(OC)cc2)C=CC(=O)CC1 (stereo not given)		> 100 µM
COC(=O)[C@]12CC[C@@H](C)[C@H](C)[C@@H]1C1=CC[C@@H]3[C@@]4(C)C[C@@H](O)[C@H](O)[C@@](C)(CO)C4=CC[C@@]3(C)[C@]1(C)CC2	19.7	34.4 µM
Cc1nc(N)sc1N=Nc1ccccc1Br		> 100 µM
NS(=O)(=O)c1ccc(N=Nc2c(O)c(C(=O)O)cc3ccccc23)cc1		> 100 µM
Cc1c(N(C)C)ccc2c(=O)c3cccc(CC(=O)O)c3oc12		> 100 µM
CC(NCCC(c1ccccc1)c1ccccc1)c1ccccc1 (stereo not given)	1.65	3.81 µM
C/C(N=NC(=S)N1CC2CCC(CC2)C1)=C1\C=CC=CN1O		> 100 µM
O=C(Nc1ccc(Br)cc1F)c1cc(Cl)ccc1O	0.441	2.2 µM
S=c1[nH]c(=S)c2cc3ccccc3nc2[nH]1	> 100	> 100 µM
CCC[CH2][Sn]([CH2]CCC)([O]C(=O)c1ccc(OC)c(OC)c1OC)[O][Sn]([CH2]CCC)([CH2]CCC)[O]C(=O)c1ccc(OC)c(OC)c1OC	1.24	2.59 µM

The compounds below were run on UO-31 renal (assay: growth of human tumour cells (NCI), 48 h).

Structure (SMILES)	GI50 [µM]	TGI
O=C(Cc1ccc(F)c(Cl)c1)Nc1cc(C2(C(F)(F)F)CC2)nn1CC1CCCCC1	2.9	9.65 µM
N#Cc1nn(-c2cc(=O)[nH]c3ccc(Cl)cc23)c(N)c1C#N	> 100	> 100 µM
NC(N)=NCCCC(=O)O		> 100 µM
CCN1CCN(c2cc(C)c3cc(NC(=O)c4ccc(OC)c(OC)c4)ccc3n2)CC1	> 37.4	> 73.2 µM
COC(=O)c1c2c(c(C)[n+]([O-])c1C)C(=O)C=C(NCc1ccc(F)cc1)C2=O	1.24	2.53 µM
CCCC(=O)Nc1cn(COC)c(C(=O)N2C[C@@H]3C[C@]34C2=CC(=O)c2[nH]cc(C)c24)n1	16.9	30.3 µM and 57.3 µM
CNCCOC(=O)/C=C1\CC[C@H]2[C@@H]([C@@H](O)C(=O)[C@@H]3[C@]2(C)CC[C@H](O)[C@]3(C)C(=O)OC)[C@H]1C	0.297	1.1 µM
Cc1nnc(Nc2ccc(NC(=O)Nc3ccc(Cl)cc3)cc2)c2ccccc12	2.14	6.01 µM
CC(=O)ON1CCCC(P(=O)(OCCSC(=O)C(C)(C)C)OCCSC(=O)C(C)(C)C)C1=O (stereo not given)	0.413	11.3 µM
C=CCC1(c2ccc(OC)cc2)C=CC(=O)CC1 (stereo not given)		> 100 µM
COC(=O)[C@]12CC[C@@H](C)[C@H](C)[C@@H]1C1=CC[C@@H]3[C@@]4(C)C[C@@H](O)[C@H](O)[C@@](C)(CO)C4=CC[C@@]3(C)[C@]1(C)CC2	14.6	30.1 µM
Cc1nc(N)sc1N=Nc1ccccc1Br		60.5 µM
NS(=O)(=O)c1ccc(N=Nc2c(O)c(C(=O)O)cc3ccccc23)cc1		> 100 µM
Cc1c(N(C)C)ccc2c(=O)c3cccc(CC(=O)O)c3oc12		> 100 µM
CC(NCCC(c1ccccc1)c1ccccc1)c1ccccc1 (stereo not given)	2.19	12.1 µM
C/C(N=NC(=S)N1CC2CCC(CC2)C1)=C1\C=CC=CN1O		43 µM
O=C(Nc1ccc(Br)cc1F)c1cc(Cl)ccc1O	0.207	2.36 µM
S=c1[nH]c(=S)c2cc3ccccc3nc2[nH]1	> 100	> 100 µM
CCC[CH2][Sn]([CH2]CCC)([O]C(=O)c1ccc(OC)c(OC)c1OC)[O][Sn]([CH2]CCC)([CH2]CCC)[O]C(=O)c1ccc(OC)c(OC)c1OC	0.546	1.18 µM
